How the values were obtained:
[1] = test system: HIV-2 LTR; assay: HIV-2 enhancer CAT reporter assay in transfected U937 cells; assay type: cell-based, Human
Protocol: Cell Culture. Human U937 monocytic cells were maintained in RPMI 1640 medium containing 10% fetal bovine serum (GibcoBRL), penicillin (50 units/ml), streptomycin (50 μg/ml), and L-glutamine (2 mM).
Phosphatase Inhibition. […]
Transfections. 5 μg of CAT reporter construct, pCMV5 PP2Ac, and the empty pCMV5 vector were combined to yield 25 μg total DNA. U937 undergoing logarithmic growth were harvested at 5×10^5 cells/ml and resuspended at 25×10^6 cells/ml in RPMI 1640 media. 10^7 cells (0.4 ml) were aliquoted to 0.4 cm electroporation cuvettes (Invitrogen) and incubated with the appropriate DNA mixture for 5 min at room temperature. The cells were then electroporated using Invitrogen's Electroporator II at a setting of 330 V, 1000 μF, and infinite resistance with an input voltage of approximately 325 V. Following electroporation, the cells from each cotransfection were evenly split ([…]) and placed in separate tissue culture plates in 5 ml of RPMI1640 media+10% FBS. After a period of 12-16 hrs, one group of cells was left untreated while the other received 32 nM TPA for 24 hrs. The cells were then harvested, washed with PBS, and lysed in 0.25 M Tris-HCl (pH 7.5). Protein levels of the lysates were determined by BioRad's colorimetric protein assay (BioRad).
Chloramphenicol Acetyl Transferase (CAT) Assay. For CAT assays, 5-30 μl of cell lysate was combined with 20 μl of 100 mM Tris-HCl (pH 7.5). The final volume was increased to 50 μl with lysis buffer, if necessary, and the mixture incubated for 15 min at 65° C. to inactivate endogenous acetyltransferases. The lysates were then transferred to 7 ml scintillation vials and 200 μl CAT reaction mixture (125 mM Tris-HCl, 1.25 mM chloramphenicol, 0.1 μCi ^3H-acetyl CoA) added. Five ml of Econofluor (Fisher Scientific) scintillation fluid was overlaid and the reaction incubated for 15-90 min before counting. Background and total counts were determined by mixing 200 μl CAT reaction mixture with 5 ml of Econfluor or Scintiverse (Fisher Scientific) respectively. CAT activity was background subtracted and normalized for total amount of protein used.
To test the possibility that PP2A is involved in the activation of the HIV-2 LTR and that PP2A may act on the HIV-2 LTR through the pets site, U937 cells were transfected with an HIV-2 enhancer CAT reporter alone or with pCMV5 PP2Ac, a plasmid encoding the catalytic domain of PP2A. After transfection, cells from each condition were split into an untreated control sample, to assess the baseline effects of PP2A, or a sample that received 32 nM 12-O-tetradecanoyl phorbol-13-acetate (TPA) for 24 hrs. […]

[2] = test system: HIV-1 LTR; details: literature reports; cited from earlier work
[3] = test system: HIV-1; details: U1 cells; for inhibition of PMA-stimulated HIV-1 replication: RT assay
[4] = test system: U1 cells; assay: Cellular viability of U1 cells treated with FST; assay type: cell-based
Protocol: The cellular viability was >100% for 10 μM FST compared to no treatment and 76.3% for 10 μM FST and PMA compared with PMA alone.

## C=C1[C@@H](O)[C@@H]2O[C@]3(CC[C@H](/C=C/[C@@H](C)[C@@H]4CC(C)=C[C@@]5(O[C@H](C[C@@](C)(O)C(=O)O)CC[C@H]5O)O4)O3)CC[C@H]2O[C@@H]1[C@@H](O)C[C@H](C)[C@H]1O[C@@]2(CCCCO2)CC[C@H]1C [okadaic acid]
[1]; 5 μg pCMV5 PP2Ac plus TPA, OKA 50-400 nM
  effect on synergy between PP2Ac and TPA in activating HIV-2 enhancer CAT reporter: significantly reduced in a dose dependent manner
[1]; OKA 50-400 nM pretreatment 30 min prior to TPA, U937 cells
  effect of OKA on CAT activity of TPA-treated cells: decrease in CAT activity
[1]; OKA alone for 18 hrs, maximal activity at 200 nM, U937 cells
  maximal increase in CAT reporter activity: 150 fold
[2]
  effect on the HIV-1 LTR: activate the HIV-1 LTR
[3]; PMA 32 nM
  inhibition of PMA-stimulated HIV-1 replication: inhibit PMA-stimulated HIV-1 replication
[3]; PMA 32 nM, from 50 nM to 200 nM
  concentration dependence of inhibition of replication: inhibited replication in a concentration dependent manner
[3]; no PMA
  inhibition of HIV-1 replication in the absence of PMA: no inhibition

## CCCCCCCCCCCCCC(=O)O[C@@H]1[C@@H](C)[C@@]2(O)[C@@H](C=C(CO)C[C@]3(O)C(=O)C(C)=C[C@@H]23)[C@@H]2C(C)(C)[C@]12OC(C)=O [TPA, 12-O-tetradecanoyl phorbol-13-acetate]
[1]; 32 nM TPA, absence of ectopic PP2Ac, U937 cells, HIV-2 CAT reporter
  increase in CAT activity above baseline: 148 fold

## C[C@@](O)(/C=C/[C@H]1CC=CC(=O)O1)[C@@H](C[C@@H](O)\C=C/C=C\C=C\CO)OP(=O)(O)O [fostreicin]
[3]; 10 μM, PMA 32 nM
  reversal of PMA stimulation of HIV-1 replication: totally reversed PMA stimulation of HIV-1 replication
[3]; PMA 32 nM
  inhibition of PMA-stimulated HIV-1 replication: inhibit PMA-stimulated HIV-1 replication
[4]; 10 μM FST
  cellular viability compared to no treatment: > 100%
[4]; 10 μM FST and PMA
  cellular viability compared with PMA alone: 76.3%
[4]; treatment with FST
  effect of treatment on cellular viability: minimally affected

Source: patent US20020137704A1, “Methods of inhibiting host-cell mediated viral replication” (priority 2000, published 2002)
